{
  "source": "patent US7947468B2",
  "about": "“Methods” (Medical Research Council, priority 2007, dated 2011)",
  "key": {"[1]": {"tested_on": "Human Platelets", "details": "non-specific serine/threonine kinase inhibitor; cited from earlier work"}, "[2]": {"tested_on": "LRRK2", "experiment": "Concentration dependent phosphorylation of Nictide / LongLRRKtide by LRRK2", "format": "biochemical", "description": "A longer LRRKtide, with the +7 to +12 residues of the Thr 558 site was compared to the LRRKtide by phosphorylation with LRRK2. […] The LRRK2 affinity for the longLRRKtide is ten fold more than that that of LRRKtide.\nA derived consensus sequences is shown below the positions. FIG. 24B depicts an alignment of the peptide substrate sequences previously used for LRRK2, LRRKtide and LongLRRKtide, along with a new peptide in which the preferred LRRK2 residues are substituted, henceforth referred to as Nictide. […] Calculated Km values are 6 μM for Nictide."}},
  "data": [
    {"molecule": "CN[C@@H]1C[C@H]2O[C@@](C)([C@@H]1OC)n1c3ccccc3c3c4c(c5c6ccccc6n2c5c31)C(=O)NC4", "note": "[staurosporine]", "values": [
      {"measurement": "effect on platelet behaviour", "setting": "[1]", "value": "form extremely long filopodia and not to spread on glass"}
    ]},
    {"molecule": "RLGRDKYKTLRQIRQGNTKQR (listed as Homo sapiens) [longLRRKtide]", "values": [
      {"measurement": "LRRK2 affinity relative to LRRKtide", "setting": "[2]; compared to LRRKtide", "value": "ten fold"}
    ]},
    {"molecule": "RLGWWRFYTLRRARQGNTKQR [Nictide]", "values": [
      {"measurement": "Km", "setting": "[2]; 5 min reaction times, read-out: Calculated Km", "value": 6, "unit": "µM"}
    ]}
  ]
}
